Measured values taken from patent US5968920A, “Compounds having a benzisoselen-azoline and -azine structure, method for preparing same and therapeutic uses thereof” (Oxis Isle of Man, Limited, priority 1994, dated 1999).

Columns and labels:
[1] = Glutathione peroxidase activity, hydrogen peroxide; type: biochemical; settings: compound 20 μM, pH = 7.3, 37° C., [GSH] = 2 mM
Procedure: To 1.5 ml of HEPES buffer, 50 mM, pH=7.3, containing 0.2 mM of DTPA, 0.144 mM of NADPH, 2.2 mM of reduced glutathione and 1.1 U/ml of glutathione disulfide reductase, pre-equilibrated for 2 minutes at 37° C., 100 μl of an ethanolic mother solution of the compound to be tested or 100 μl of absolute ethanol (blank) was added. Each compound was tested at a final concentration of 20 μM.
Subsequently, 50 μl of the following was added:
or hydrogen peroxide (H2 O2), 1.6 mM in ultrapure water;
or the hydroperoxide of linoleic acid (18:2-OOH) prepared using soya lipoxygenase (see M. O. Funk et al., Lipids, (1976), 11, pp 113-117), 3.3 mM in a water/methanol mixture, 85/15 (V/V). The glutathione peroxidase activity was measured at 37° C. by measuring the reduction in absorbance at 340 nm over 5 minutes. The initial enzymatic rate or activity was proportional to the slope of the plot of absorbance against time.
They are expressed in nmoles of hydroperoxide reduced per minute.

endothelial cells [2] = test: Adhesion of PMN to endothelial cells induced by TNF-α (myeloperoxidase); type: cell-based, human; settings: compound 10 μM vs pentoxifylline 50 μM; TNF-α 1 ng/ml
Procedure: (§1) Human endothelial cells were cultivated under the same conditions as those described for Example 18.
(§2) When the cells were near confluence, they were incubated for one hour in the presence or absence of the following compounds: BXT-51072, BXT-51077 or pentoxifylline. Compounds BXT-51072 and BXT-51077, each at 10 μM, and the pentoxifylline, at 50 μM, were incorporated in culture medium containing 2% of foetal calf serum, all other conditions being the same. […] Myeloperoxidase (MPO), an enzyme specifically contained in PMNs, was then measured in the cell lysates obtained to evaluate adhesion of the PMNs on the endothelial cells. The von Willebrandt factor (vWf) liberated in the culture medium by the endothelial cells was measured after three and a half hours of incubation, as a label of the changes in the cells.
(§3) Incubation of the endothelial cells in the presence of PMN and TNF-α led to a very significant increase in the quantity of MPO and vWf with respect to the respective controls (PMN alone, and endothelial cells alone respectively), meaning the adhesion of activated PMNs to the endothelial cells and changes in the latter.
(§4) They are expressed as the percentage inhibition by referring the MPO and vWf measurements to the respective concentrations of MPO and vWf determined when the endothelial cells were incubated with TNF-α and PMNs.

rat = test: Tolerance after repeated oral administration to the rat in vivo; design: species or system Sprague-Dawley rat; settings: 14 days
Procedure: Male adult Sprague-Dawley rats were randomly divided into 4 groups. To one group of 10 rats and another group of 15 rats, one dose of 10 μmoles and one dose of 100 μmoles per kilogram of body weight of BXT-51072 were respectively orally administered (force feeding) each day for 14 days. These doses were administered using an aqueous solution containing 1% of sodium carboxymethylcellulose (CMC). Using the same procedure, a third group of 12 rats received only the vector (1% CMC) and a […] group of 3 rats received no force feeding.
In order to evaluate any toxicity in the test compound, all the animals were regularly weighed over the 14 days. Their appearance and behavior were observed daily.
About 16 hours after the final administration, the rats were anaesthetised with ketamine and blood samples were taken by intra-cardiac tapping to measure different hematological and biochemical parameters. The weight curves of the animals are shown in FIGS. 5 and 6 and Table 3 summarises the results of measurements carried out on the blood of the animals and the corresponding deviations.

endothelial cells [3] = test: Endothelial changes induced by PMN and TNF-α (von Willebrandt factor release); type: cell-based, human; settings: BXT compounds 10 μM, pentoxifylline 50 μM; TNF-α 1 ng/ml; 3.5 h
Procedure: as §1, §2, §3, §4

P-selectin = test: Endothelial expression of P-selectin induced by TNF-α (ELISA); type: cell-based; settings: Homo sapiens, Endothelial cell; compound 10 μM; TNF-α 1 ng/ml; 3 to 4 hours; read-out: inhibition of TNF-α induced increase in expression of P-selectin
Procedure: Human endothelial cells were cultivated under the same conditions as those described for Example 18. When the cells were near confluence, they were incubated for one hour in the presence or absence of BXT-51072 at 10 μM in culture medium containing 2% of foetal calf serum, all other conditions being the same. The cells were then washed three times with a PBS buffer. The cells which had not been pretreated by a compound were incubated in the presence or absence (control) of TNF-α, at 1 ng/ml, in the same culture medium. The pretreated cells were incubated under the same conditions, but the medium also contained BXT-51072 at 10 μM. After 3 to 4 hours of incubation, the cells were washed with a PBS buffer and fixed with 2% formaldehyde in a PBS buffer.

[4] = 10 and 100 μmoles/kg oral daily

With `CC1(C)CN[Se]c2ccccc21` [BXT-51072, 4,4-dimethyl-benzisoselenazine] the “Glutathione peroxidase activity, H2 O2” value [1] was 42.0 nmoles of hydroperoxide reduced/min, the “inhibition of the adhesion of PMN induced by TNF-α (MPO)” value (endothelial cells [2]) was “inhibit the adhesion of PMN induced by TNF-α, much more effectively than pentoxifylline” and the “BAS (basophiles)” value (rat; 10 μmoles/kg oral, n 4) was 0%. For the same compound, the “EOS (eosinophiles)” value (rat; 10 μmoles/kg oral, n 4) was 0%, the “GB (White cells)” value (rat; 10 μmoles/kg oral, n 4) was 8.45 G/l and the “GR (Red cells)” value (rat; 10 μmoles/kg oral, n 4) was 6.88 T/l. The “HB (Hemoglobin)” value (rat; 10 μmoles/kg oral, n 4) was 9.08 mM, the “HCT (Hematocrit)” value (rat; 10 μmoles/kg oral, n 4) was 0.41 and the “LYM (Lymphocytes)” value (rat; 10 μmoles/kg oral, n 4) was 82%. For the same compound, the “MON (Monocytes)” value (rat; 10 μmoles/kg oral, n 4) was 0%, the “NEU (neutrophiles)” value (rat; 10 μmoles/kg oral, n 4) was 18% and the “PAL (Alkaline phosphalase)” value (rat; 10 μmoles/kg oral, n 4) was 320 Ul/l. The “PLT (Platelets)” value (rat; 10 μmoles/kg oral, n 4) was 541 G/l, the Urea (rat; 10 μmoles/kg oral, n 4) was 4.03 mM and the “VGM (Average cell volume of GR)” value (rat; 10 μmoles/kg oral, n 4) was 59.8 II. The “K^+” value (rat; 10 μmoles/kg oral, n = 1) was 5.0 mM, the “Na^+” value (rat; 10 μmoles/kg oral, n = 1) was 143 mM and the “Cl^-” value (rat; 10 μmoles/kg oral, n = 2) was 93 mM. The “Prot (Proteins)” value (rat; 10 μmoles/kg oral, n = 2) was 53.9 g/L, the “ALAT (Alanine aminotransferase)” value (rat; 10 μmoles/kg oral, n = 3) was 50 Ul/l and the “ASAT (Aspartale aminotransferase)” value (rat; 10 μmoles/kg oral, n = 3) was 136 Ul/l. The weight gain (rat; 100 μmoles/kg oral daily) was “slight slowing in weight gain”, the “BAS (basophiles)” value (rat; 100 μmoles/kg oral, n 7) was 0% and the “EOS (eosinophiles)” value (rat; 100 μmoles/kg oral, n 7) was 1%. The “GB (White cells)” value (rat; 100 μmoles/kg oral, n 7) was 7.57 G/l, the “GR (Red cells)” value (rat; 100 μmoles/kg oral, n 7) was 7.44 T/l and the “HB (Hemoglobin)” value (rat; 100 μmoles/kg oral, n 7) was 9.46 mM. The “HCT (Hematocrit)” value (rat; 100 μmoles/kg oral, n 7) was 0.43, the “LYM (Lymphocytes)” value (rat; 100 μmoles/kg oral, n 7) was 81% and the “MON (Monocytes)” value (rat; 100 μmoles/kg oral, n 7) was 0%. The “NEU (neutrophiles)” value (rat; 100 μmoles/kg oral, n 7) was 18%, the “PLT (Platelets)” value (rat; 100 μmoles/kg oral, n 7) was 517 G/l and the “VGM (Average cell volume of GR)” value (rat; 100 μmoles/kg oral, n 7) was 57.6 II. For the same compound, the “K^+” value (rat; 100 μmoles/kg oral, n = 2) was 5.0 mM, the “Na^+” value (rat; 100 μmoles/kg oral, n = 2) was 143 mM and the “ALAT (Alanine aminotransferase)” value (rat; 100 μmoles/kg oral, n = 4) was 58 Ul/l. For the same compound, the “ASAT (Aspartale aminotransferase)” value (rat; 100 μmoles/kg oral, n = 4) was 133 Ul/l, the “Cl^-” value (rat; 100 μmoles/kg oral, n = 4) was 93 mM and the “Prot (Proteins)” value (rat; 100 μmoles/kg oral, n = 4) was 55.0 g/L. For the same compound, the “PAL (Alkaline phosphalase)” value (rat; 100 μmoles/kg oral, n = 5) was 310 Ul/l, the Urea (rat; 100 μmoles/kg oral, n = 5) was 4.05 mM and the mortality (rat; [4]) was “none of the animals had died”. The “other signs of toxicity” value (rat; [4]) was “no other sign of toxicity”, the tolerance (rat; repeated oral administration) was “tolerated well” and the “protection of endothelial cells against the deleterious effects of activated PMNs (vWf)” value (endothelial cells [3]) was “protect endothelial cells against the deleterious effects of activated PMNs”. The inhibition at 10 µM (P-selectin) was > 90%.
